Assay results reported in ChEMBL document CHEMBL5214932, “A closer look at N2,6-substituted 1,3,5-triazine-2,4-diamines: Advances in synthesis and biological activities” (Eur J Med Chem, 2022).
Each block holds one compound with its values, some of them ahead of it.

Key:
[1] = Cytotoxicity against […] cells assessed as cell growth inhibition measured after 72 hrs by CellTiter-Glo assay; format: functional, cell-based; settings: Hepa1-6, 72 h
[2] = Cytotoxicity against human Hepa 1-6/R cells assessed as cell growth inhibition measured after 72 hrs by CellTiter-Glo assay; format: functional, cell-based
[3] = tested on: Human immunodeficiency virus 1; assay: Antiviral activity against wild type HIV1 IIIB assessed as viral growth inhibition measured after 5 days by MTT assay; format: functional, organism-based; settings: Human immunodeficiency virus 1, IIIB, 120 h
[4] = tested on: Human immunodeficiency virus 1; assay: Antiviral activity against NNRTI resistant HIV1 harboring Leu100IIe mutant infected in human MT4 cells assessed as reduction in virus-induced cytopathic effect measured after 5 days by MTT assay; format: functional, organism-based; settings: Human immunodeficiency virus 1, MT4, 120 h
[5] = tested on: Human immunodeficiency virus 1; assay: Antiviral activity against NNRTI resistant HIV1 harboring Lys103Asn mutant infected in human MT4 cells assessed as reduction in virus-induced cytopathic effect measured after 5 days by MTT assay; format: functional, organism-based; settings: Human immunodeficiency virus 1, MT4, 120 h
[6] = tested on: Human immunodeficiency virus 1; assay: Antiviral activity against NNRTI resistant HIV1 harboring Val106Ala mutant infected in human MT4 cells assessed as reduction in virus-induced cytopathic effect measured after 5 days by MTT assay; format: functional, organism-based; settings: Human immunodeficiency virus 1, MT4, 120 h
[7] = tested on: Human immunodeficiency virus 1; assay: Antiviral activity against NNRTI resistant HIV1 harboring Tyr181Cys mutant infected in human MT4 cells assessed as reduction in virus-induced cytopathic effect measured after 5 days by MTT assay; format: functional, organism-based; settings: Human immunodeficiency virus 1, MT4, 120 h
[8] = tested on: Human immunodeficiency virus 1; assay: Antiviral activity against NNRTI resistant HIV1 harboring Tyr188Leu mutant infected in human MT4 cells assessed as reduction in virus-induced cytopathic effect measured after 5 days by MTT assay; format: functional, organism-based; settings: Human immunodeficiency virus 1, MT4, 120 h
[9] = tested on: Human immunodeficiency virus 1; assay: Antiviral activity against NNRTI resistant HIV1 harboring Gly190Ala mutant infected in human MT4 cells assessed as reduction in virus-induced cytopathic effect measured after 5 days by MTT assay; format: functional, organism-based; settings: Human immunodeficiency virus 1, MT4, 120 h
[10] = biological target: T1, Free fatty acid receptor 1 (Homo sapiens, UniProt O14842); assay: Positive allosteric modulation of GPR40 (unknown origin) at 100 uM assessed as maximum efficacy relative to control; settings: filed as positive allosteric modulator
T1 sequence (O14842 whole entry): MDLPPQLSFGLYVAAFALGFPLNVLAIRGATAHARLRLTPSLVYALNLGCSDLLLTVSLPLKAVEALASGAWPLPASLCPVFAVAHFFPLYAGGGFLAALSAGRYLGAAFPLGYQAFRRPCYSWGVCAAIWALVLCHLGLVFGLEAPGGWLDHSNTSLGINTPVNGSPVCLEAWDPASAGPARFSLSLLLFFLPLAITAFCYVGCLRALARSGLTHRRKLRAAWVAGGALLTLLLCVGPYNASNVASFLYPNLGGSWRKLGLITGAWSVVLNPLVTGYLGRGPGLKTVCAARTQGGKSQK

[11] = biological target: T1, Free fatty acid receptor 1; assay: Positive allosteric modulation of GPR40 (unknown origin)
[12] = Cytotoxicity against human IM-9 cells assessed as cell growth inhibition; format: toxicity, cell-based
Jurkat [13] = assay: Cytotoxicity against human Jurkat cells assessed as cell growth inhibition; format: functional, cell-based
Daudi = assay: Cytotoxicity against human Daudi cells assessed as cell growth inhibition; format: functional, cell-based
MCF7 = assay: Cytotoxicity against human MCF7 cells assessed as cell growth inhibition; format: functional, cell-based
DU-145 = assay: Cytotoxicity against human DU-145 cells assessed as cell growth inhibition; format: functional, cell-based
[14] = Cytotoxicity against mouse LL2 cells assessed as cell growth inhibition; format: functional, cell-based; settings: Lewis lung carcinoma
[15] = Cytotoxicity against human MHOC-59 cell assessed as cell growth inhibition; format: functional, cell-based
AN3-CA = assay: Cytotoxicity against human AN3-CA cells assessed as cell growth inhibition; format: functional, cell-based
HEC-1-A = assay: Cytotoxicity against human HEC-1-A cells assessed as cell growth inhibition; format: functional, cell-based
K562 = assay: cells; settings: Homo sapiens
Description: Cytotoxicity against human K562 cells assessed as cell growth inhibition

[16] = biological target: 5-hydroxytryptamine receptor 1A (Homo sapiens, UniProt P08908); assay: Displacement of […] from human 5-HT1AR expressed in HEK293 cells by radioligand binding assay; format: cell-based
Chain of 5-hydroxytryptamine receptor 1A (P08908 whole entry): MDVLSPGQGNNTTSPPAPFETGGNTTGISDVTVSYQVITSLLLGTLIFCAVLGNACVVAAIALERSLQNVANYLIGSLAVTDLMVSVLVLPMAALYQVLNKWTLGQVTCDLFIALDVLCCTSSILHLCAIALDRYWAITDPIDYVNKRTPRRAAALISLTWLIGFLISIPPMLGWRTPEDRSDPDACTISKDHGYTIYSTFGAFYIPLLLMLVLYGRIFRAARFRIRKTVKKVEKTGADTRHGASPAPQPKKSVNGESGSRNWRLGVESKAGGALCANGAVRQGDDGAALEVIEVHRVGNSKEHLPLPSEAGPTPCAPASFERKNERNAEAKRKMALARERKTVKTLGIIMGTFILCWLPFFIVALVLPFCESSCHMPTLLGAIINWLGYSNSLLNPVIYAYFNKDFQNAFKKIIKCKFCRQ

[17] = biological target: 5-hydroxytryptamine receptor 7 (Homo sapiens, UniProt P34969); assay: Displacement of [3H]-5Carboxyamidotryptamine from human 5-HT7R expressed in HEK293 cells by radioligand binding assay; format: cell-based
Chain of 5-hydroxytryptamine receptor 7 (P34969 whole entry): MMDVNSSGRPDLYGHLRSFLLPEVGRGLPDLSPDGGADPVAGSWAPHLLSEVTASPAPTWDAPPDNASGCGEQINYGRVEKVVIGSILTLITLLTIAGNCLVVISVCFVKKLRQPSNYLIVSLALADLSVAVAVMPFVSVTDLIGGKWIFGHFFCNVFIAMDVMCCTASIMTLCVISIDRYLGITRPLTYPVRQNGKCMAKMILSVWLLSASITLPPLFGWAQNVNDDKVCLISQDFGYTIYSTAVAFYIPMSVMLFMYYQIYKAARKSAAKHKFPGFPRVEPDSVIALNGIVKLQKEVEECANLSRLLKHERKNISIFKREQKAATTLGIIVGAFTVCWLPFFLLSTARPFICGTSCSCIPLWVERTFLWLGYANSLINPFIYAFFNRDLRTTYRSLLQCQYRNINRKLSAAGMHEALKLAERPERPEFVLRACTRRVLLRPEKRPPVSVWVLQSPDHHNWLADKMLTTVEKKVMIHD

D(2) dopamine receptor = D(2) dopamine receptor (Homo sapiens, UniProt P14416); assay: Displacement of [3H]-Raclopride from human dopamine D2 receptor expressed in HEK293 cells by radioligand binding assay; format: cell-based
Chain of D(2) dopamine receptor (P14416 whole entry): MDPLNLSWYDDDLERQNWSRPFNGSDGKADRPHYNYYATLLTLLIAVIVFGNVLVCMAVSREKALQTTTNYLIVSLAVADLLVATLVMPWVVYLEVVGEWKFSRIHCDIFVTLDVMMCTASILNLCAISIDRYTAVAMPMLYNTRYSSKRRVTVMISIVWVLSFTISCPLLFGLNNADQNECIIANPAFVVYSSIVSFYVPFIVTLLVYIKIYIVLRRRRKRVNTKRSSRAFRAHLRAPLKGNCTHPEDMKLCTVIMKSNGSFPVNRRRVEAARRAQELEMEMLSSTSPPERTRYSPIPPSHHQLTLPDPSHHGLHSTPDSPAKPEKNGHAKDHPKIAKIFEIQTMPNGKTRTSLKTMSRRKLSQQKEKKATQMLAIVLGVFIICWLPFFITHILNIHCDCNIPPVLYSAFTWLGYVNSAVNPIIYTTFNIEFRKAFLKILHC

[18] = biological target: 5-hydroxytryptamine receptor 6 (Homo sapiens, UniProt P50406); assay: Displacement of [3H]-LSD from human 5-HT6R expressed in HEK293 cells assessed as binding constant by radioligand binding assay; format: cell-based
Chain of 5-hydroxytryptamine receptor 6 (P50406 whole entry): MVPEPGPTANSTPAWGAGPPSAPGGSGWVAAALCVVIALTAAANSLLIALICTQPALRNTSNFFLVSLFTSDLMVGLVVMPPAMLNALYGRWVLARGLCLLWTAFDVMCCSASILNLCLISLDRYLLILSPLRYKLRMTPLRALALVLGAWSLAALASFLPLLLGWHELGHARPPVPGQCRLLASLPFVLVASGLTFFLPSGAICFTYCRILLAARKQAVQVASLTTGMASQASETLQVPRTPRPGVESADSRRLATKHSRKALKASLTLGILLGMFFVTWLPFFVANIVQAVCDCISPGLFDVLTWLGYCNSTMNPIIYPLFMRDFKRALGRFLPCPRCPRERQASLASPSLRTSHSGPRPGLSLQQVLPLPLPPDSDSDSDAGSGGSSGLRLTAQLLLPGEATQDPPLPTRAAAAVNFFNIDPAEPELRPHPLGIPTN

[19] = biological target: 1-acyl-sn-glycerol-3-phosphate acyltransferase beta (Homo sapiens, UniProt O15120); assay: Inhibition of LPAAT-beta (unknown origin) expressed in Xenopus laevis oocytes incubated for 3 mins; format: cell-based, Oocyte
Chain of 1-acyl-sn-glycerol-3-phosphate acyltransferase beta (O15120 whole entry): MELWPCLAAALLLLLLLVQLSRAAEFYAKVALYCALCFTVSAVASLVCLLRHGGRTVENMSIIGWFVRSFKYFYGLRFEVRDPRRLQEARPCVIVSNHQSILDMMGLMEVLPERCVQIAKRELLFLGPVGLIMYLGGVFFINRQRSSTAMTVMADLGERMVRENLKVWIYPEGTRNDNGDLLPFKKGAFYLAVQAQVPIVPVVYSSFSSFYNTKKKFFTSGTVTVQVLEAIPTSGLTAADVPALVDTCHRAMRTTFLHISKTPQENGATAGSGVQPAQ

HeLa = assay: Cytotoxicity against human HeLa cells assessed as cell growth inhibition incubated for 96 hrs by WST-8 assay; format: functional, cell-based
[20] = Cytotoxicity against human HCO cell assessed as cell growth inhibition incubated for 96 hrs by WST-8 assay; format: functional, cell-based
HEK293 = assay: Cytotoxicity against HEK293 cells assessed as cell growth inhibition incubated for 96 hrs by WST-8 assay; format: functional, cell-based; settings: Homo sapiens, HEK293, 96 h
MEF = assay: Cytotoxicity against mouse MEF cells assessed as cell growth inhibition incubated for 96 hrs by WST-8 assay; format: functional, cell-based
SK-OV-3 = assay: Cytotoxicity against human SK-OV-3 cells assessed as cell growth inhibition incubated for 96 hrs by WST-8 assay; format: functional, cell-based; settings: SK-OV-3, 96 h
NADPH oxidase 1 = NADPH oxidase 1 (Homo sapiens, UniProt Q9Y5S8); assay: Inhibition of human NOX1
Chain of NADPH oxidase 1 (Q9Y5S8 whole entry): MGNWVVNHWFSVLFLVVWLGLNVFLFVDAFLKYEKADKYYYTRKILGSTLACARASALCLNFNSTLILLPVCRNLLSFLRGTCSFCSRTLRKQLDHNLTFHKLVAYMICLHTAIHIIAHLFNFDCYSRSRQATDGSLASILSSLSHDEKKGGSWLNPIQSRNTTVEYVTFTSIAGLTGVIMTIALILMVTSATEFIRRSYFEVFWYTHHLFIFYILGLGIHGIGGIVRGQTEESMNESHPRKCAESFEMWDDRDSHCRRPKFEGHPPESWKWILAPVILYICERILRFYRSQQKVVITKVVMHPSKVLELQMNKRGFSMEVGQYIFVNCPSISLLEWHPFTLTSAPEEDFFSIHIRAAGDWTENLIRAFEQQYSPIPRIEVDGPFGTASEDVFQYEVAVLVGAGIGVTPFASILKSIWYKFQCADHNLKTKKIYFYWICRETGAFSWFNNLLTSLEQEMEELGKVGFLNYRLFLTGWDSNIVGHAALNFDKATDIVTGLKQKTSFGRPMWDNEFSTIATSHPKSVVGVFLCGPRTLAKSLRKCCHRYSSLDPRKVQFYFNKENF

NADPH oxidase 2 = NADPH oxidase 2 (Homo sapiens, UniProt P04839); assay: Inhibition of human NOX2
Chain of NADPH oxidase 2 (P04839 whole entry): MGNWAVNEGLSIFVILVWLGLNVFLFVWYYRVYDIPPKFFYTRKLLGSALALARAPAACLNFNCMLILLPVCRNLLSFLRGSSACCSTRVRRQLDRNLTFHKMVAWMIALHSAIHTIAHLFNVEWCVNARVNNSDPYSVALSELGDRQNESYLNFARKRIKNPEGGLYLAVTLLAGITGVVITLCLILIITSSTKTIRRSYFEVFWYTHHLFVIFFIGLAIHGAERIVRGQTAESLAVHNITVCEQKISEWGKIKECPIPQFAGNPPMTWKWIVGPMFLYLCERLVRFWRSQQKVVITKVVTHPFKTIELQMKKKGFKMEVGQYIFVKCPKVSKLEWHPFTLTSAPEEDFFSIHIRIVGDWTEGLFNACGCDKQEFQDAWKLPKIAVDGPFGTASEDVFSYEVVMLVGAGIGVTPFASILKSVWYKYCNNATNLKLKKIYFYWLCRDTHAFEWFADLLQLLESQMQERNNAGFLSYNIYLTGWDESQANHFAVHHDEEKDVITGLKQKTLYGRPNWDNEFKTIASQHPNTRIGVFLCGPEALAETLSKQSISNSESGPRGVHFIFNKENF

NADPH oxidase 3 = NADPH oxidase 3 (Homo sapiens, UniProt Q9HBY0); assay: Inhibition of human NOX3
Chain of NADPH oxidase 3 (Q9HBY0 whole entry): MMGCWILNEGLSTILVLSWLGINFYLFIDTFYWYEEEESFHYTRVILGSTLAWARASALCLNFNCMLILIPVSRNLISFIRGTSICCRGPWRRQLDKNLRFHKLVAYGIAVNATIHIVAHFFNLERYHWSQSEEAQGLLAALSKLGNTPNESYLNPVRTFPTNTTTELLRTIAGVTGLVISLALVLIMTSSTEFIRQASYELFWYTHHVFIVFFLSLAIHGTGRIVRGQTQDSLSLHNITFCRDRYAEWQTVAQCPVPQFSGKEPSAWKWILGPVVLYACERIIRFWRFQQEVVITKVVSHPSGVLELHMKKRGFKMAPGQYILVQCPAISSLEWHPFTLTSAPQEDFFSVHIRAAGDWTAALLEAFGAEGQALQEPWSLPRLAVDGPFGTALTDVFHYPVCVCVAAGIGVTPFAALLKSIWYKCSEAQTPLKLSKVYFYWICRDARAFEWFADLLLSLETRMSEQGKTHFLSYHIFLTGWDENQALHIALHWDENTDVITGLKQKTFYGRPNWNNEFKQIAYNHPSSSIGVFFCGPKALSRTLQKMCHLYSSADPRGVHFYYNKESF

[21] = biological target: T2, Equilibrative nucleoside transporter 1 (Homo sapiens, UniProt Q99808); assay: Inhibition of human ENT1 transfected in nucleoside transporter-deficient pig PK-15 cells assessed as inhibition of [3H]-adenosine uptake by liquid scintillation counter analysis; format: cell-based
T2 sequence (Q99808 whole entry): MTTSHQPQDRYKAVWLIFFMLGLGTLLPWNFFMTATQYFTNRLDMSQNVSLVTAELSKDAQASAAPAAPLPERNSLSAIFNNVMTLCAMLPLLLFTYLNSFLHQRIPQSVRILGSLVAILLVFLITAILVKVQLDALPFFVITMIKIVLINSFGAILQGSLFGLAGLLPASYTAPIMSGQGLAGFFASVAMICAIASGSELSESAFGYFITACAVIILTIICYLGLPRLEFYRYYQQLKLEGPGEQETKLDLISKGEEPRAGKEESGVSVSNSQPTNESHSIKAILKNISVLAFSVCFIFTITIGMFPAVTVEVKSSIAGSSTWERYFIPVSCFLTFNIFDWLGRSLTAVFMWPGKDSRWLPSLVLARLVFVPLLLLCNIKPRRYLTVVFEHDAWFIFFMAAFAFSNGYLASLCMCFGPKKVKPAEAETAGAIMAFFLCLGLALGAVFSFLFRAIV

[22] = biological target: T3, Equilibrative nucleoside transporter 2 (Homo sapiens, UniProt Q14542); assay: Inhibition of human ENT2 transfected in nucleoside transporter-deficient pig PK-15 cells assessed as inhibition of [3H]-adenosine uptake by liquid scintillation counter analysis; format: cell-based
T3 sequence (Q14542 whole entry): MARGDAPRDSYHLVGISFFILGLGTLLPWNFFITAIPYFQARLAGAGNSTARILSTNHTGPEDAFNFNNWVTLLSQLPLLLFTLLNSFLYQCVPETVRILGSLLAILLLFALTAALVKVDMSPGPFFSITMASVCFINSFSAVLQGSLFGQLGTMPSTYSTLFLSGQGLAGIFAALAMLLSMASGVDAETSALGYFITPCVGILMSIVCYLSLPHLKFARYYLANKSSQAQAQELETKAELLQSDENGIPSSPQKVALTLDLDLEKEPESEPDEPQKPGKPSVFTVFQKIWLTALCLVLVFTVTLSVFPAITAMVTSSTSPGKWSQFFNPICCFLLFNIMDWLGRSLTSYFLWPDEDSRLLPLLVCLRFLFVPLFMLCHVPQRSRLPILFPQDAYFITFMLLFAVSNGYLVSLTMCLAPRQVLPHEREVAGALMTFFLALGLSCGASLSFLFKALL

[23] = biological target: T2, Equilibrative nucleoside transporter 1; assay: Inhibition of human ENT1 transfected in nucleoside transporter-deficient pig PK-15 cells assessed as inhibition of [3H]-uridine uptake by liquid scintillation counter analysis; format: cell-based
[24] = biological target: T3, Equilibrative nucleoside transporter 2; assay: Inhibition of human ENT2 transfected in nucleoside transporter-deficient pig PK-15 cells assessed as inhibition of [3H]-uridine uptake by liquid scintillation counter analysis; format: cell-based
[25] = tested on: Human immunodeficiency virus 1; assay: Antiviral activity against NNRTI resistant HIV1 LAI infected in human MT4 cells assessed as reduction in virus-induced cytopathic effect measured after 5 days by MTT assay; format: functional, organism-based; settings: Human immunodeficiency virus 1, LAI, MT4, 120 h
Jurkat [26] = assay: Cytotoxicity against human Jurkat cells assessed as cell growth inhibition measured after 72 hrs by MTS assay; format: functional, cell-based

Structure (SMILES): C[C@H](CCc1nc(N)nc(N(C)C)n1)[C@H]1CC[C@H]2[C@@H]3[C@@H](O)C[C@@H]4C[C@H](O)CC[C@]4(C)[C@H]3CC[C@]12C
IC50 [1]: 28600 nM | IC50 [2]: 30300 nM

Structure (SMILES): N#Cc1ccc(Nc2nc(N)nc(Cc3c(Cl)ccc4[nH]ccc34)n2)cc1
IC50 [3]: 3 nM | IC50 [4]: 1000 nM | IC50 [5]: 63 nM | IC50 [6]: 63 nM | IC50 [7]: 250 nM | IC50 [8]: 1000 nM | IC50 [9]: 3 nM

Structure (SMILES): CN1CCN(c2nc(N)nc(Cc3c[nH]c4ccccc34)n2)CC1
Ki [16]: 9450 nM | Ki [17]: 16800 nM | Ki (D(2) dopamine receptor): 1950 nM | Kb [18]: 18 nM

Structure (SMILES): COc1cccc(N2CCN(Cc3nc(N)nc(Nc4ccc(C)c(C)c4)n3)CC2)c1
IC50 (NADPH oxidase 1): > 10000 nM | IC50 (NADPH oxidase 2): 1250 nM | IC50 (NADPH oxidase 3): 1250 nM

Structure (SMILES): N#Cc1ccc(Nc2nc(N)nc(Cc3c(Cl)cccc3Cl)n2)cc1
IC50 [3]: 2 nM | IC50 [4]: 293 nM | IC50 [5]: 40 nM | IC50 [6]: 26 nM | IC50 [7]: 200 nM | IC50 [9]: 1 nM | IC50 [25]: 6.3 nM

Structure (SMILES): Nc1nc(-c2ccccc2)nc(N2CCc3ccccc3C2)n1
IC50 (Jurkat [26]): 1950 nM

Now from value to compound, other results behind:

Emax [10]: 134% | EC50 [11]: 776 nM
Structure (SMILES): Cc1ccccc1Nc1nc(N)nc(COc2ccc3c(C)cc(=O)oc3c2)n1

IC50 (K562): 50 nM
Structure (SMILES): Cc1ccc(Cl)cc1-c1nc(N)nc(Nc2ccc(Br)cc2)n1
IC50 [12]: 50 nM | IC50 (Jurkat [13]): 50 nM | IC50 (Daudi): 70 nM | IC50 (MCF7): 90 nM | IC50 (DU-145): 70 nM | IC50 [14]: 75 nM | IC50 [15]: 104 nM | IC50 (AN3-CA): 37 nM | IC50 (HEC-1-A): 100 nM

IC50 [19]: 8.4 nM
Structure (SMILES): CCc1c(-c2nc(N)nc(Nc3ccc(C)cc3)n2)oc2ccccc12
IC50 (HeLa): 140 nM | IC50 [20]: 102 nM | IC50 (HEK293): 51 nM | IC50 (MEF): 62 nM | IC50 (SK-OV-3): 179 nM

Ki [17]: 5710 nM
Structure (SMILES): CCC(Oc1cc(Cl)ccc1Cl)c1nc(N)nc(N2CCN(C)CC2)n1 (configuration not stated)

IC50 [21]: 19400 nM | IC50 [22]: 4360 nM | IC50 [23]: 18000 nM | IC50 [24]: 1690 nM
Structure (SMILES): Nc1nc(CN2CCN(c3ccccc3F)CC2)nc(Nc2cccc3ccccc23)n1
